From publication PMC6272684, “Synthesis, Antiproliferative and Antifungal Activities of 1,2,3-Triazole-Substituted Carnosic Acid and Carnosol Derivatives” (Molecules, 2015)
Several values for one entry are separate records, joined by “and”; a condition that tells them apart may be missing. Equal entries are not always repeated.

How the values were obtained:
C. albicans ATCC 10231 = experiment: Antifungal broth microdilution (CLSI M27-A3), growth inhibition; format: cell-based, Candida albicans; settings: for MIC50 (minimum concentration to inhibit 50% of fungal growth), C. albicans: C. albicans ATCC 10231
Method: (§1) The antifungal properties of compounds 1–24 against two clinical important fungal species, C. albicans ATCC 10231 and C. neoformans ATCC 32264 were investigated. Results were expressed as the percentages of inhibition of each fungus in the range 250–3.9 μg∙mL^−1 by using the standardized microbroth dilution method M-27A3 of Clinical and Laboratory Standards Institute which assures reliable and reproducible results.
(§2) For the antifungal evaluation, standardized strains from the American Type Culture Collection (ATCC), Rockville, MD, USA, were used. The microorganisms included yeasts (Candida albicans ATCC 10231 and Cryptococcus neoformans ATCC 32264). Strains were grown on Sabouraud-chloramphenicol agar slants for 48 h at 30 °C, maintained on slopes of Sabouraud-dextrose agar (SDA, Oxoid), and subcultured every 15 days to prevent pleomorphic transformations. Inocula of cell or spore suspensions were obtained according to reported procedures and adjusted to 1–5 × 10^3 cells/spores with colony forming units (CFU)/mL [29].
(§3) Broth microdilution techniques were performed in 96-well microplates according to the Clinical and Laboratory Standards Institute Reference Method for Broth Dilution Antifungal Susceptibility Testing of Yeasts, Approved Standard M27-A3 [29]. For the assay, compound test wells (CTWs) were prepared with stock solutions of each compound in DMSO (maximum concentration ≤1%), diluted with RPMI-1640, to final concentrations of 250–3.9 μg∙mL^−1. An inoculum suspension (100 μL) was added to each well (final volume in the well = 200 μL). A growth control well (GCW) (containing medium, inoculum, and the same amount of DMSO used in a CTW, but compound-free) and a sterility control well (SCW) (sample, medium, and sterile water instead of inoculum) were included for each fungus tested. Microtiter trays were incubated in a moist, dark chamber at 30 °C for 48 h for both yeasts. Microplates were read in a VERSA Max microplate reader (Molecular Devices, Sunnyvale, CA, USA). Amphotericin B (Sigma-Aldrich) was used as positive control. Tests were performed in triplicate. Reduction of growth for each compound concentration was calculated as follows: % of inhibition = 100 − (OD 405 CTW − OD 405 SCW)/(OD 405 GCW − OD 405 SCW). The means ± SEM were the results of triplicate tests. Three endpoints were defined from the assay explained above and the dose-response curves. Minimum Inhibitory concentration (MIC) resulting in total fungal growth inhibition was named MIC100 while MIC50 was defined as the minimum concentration that inhibits 50% of the fungal growth.

C. neoformans ATCC 32264 = experiment: as above; format: cell-based, Cryptococcus neoformans; settings: for MIC50 (minimum concentration to inhibit 50% of fungal growth), C. neoformans: C. neoformans ATCC 32264
Method: as §1, §2, §3

Structure (SMILES) | MIC50 (minimum concentration to inhibit 50% of fungal growth), C. albicans (C. albicans ATCC 10231) [µg/mL] | MIC50 (minimum concentration to inhibit 50% of fungal growth), C. neoformans (C. neoformans ATCC 32264) [µg/mL] | Inhibition percentage against C. albicans ATCC 10231 (C. albicans ATCC 10231; 3.9 μg∙mL^−1, 48 h) [%] | Inhibition percentage against C. albicans ATCC 10231 (C. albicans ATCC 10231; 7.8 μg∙mL^−1, 48 h) [%] | Inhibition percentage against C. albicans ATCC 10231 (C. albicans ATCC 10231; 15.6 μg∙mL^−1, 48 h) [%] | Inhibition percentage against C. albicans ATCC 10231 (C. albicans ATCC 10231; 62.5 μg∙mL^−1, 48 h) [%] | Inhibition percentage against C. albicans ATCC 10231 (C. albicans ATCC 10231; 125 μg∙mL^−1, 48 h) [%] | Inhibition percentage against C. albicans ATCC 10231 (C. albicans ATCC 10231; 250 μg∙mL^−1, 48 h) [%] | Inhibition percentage against C. albicans ATCC 10231 (C. albicans ATCC 10231; 31. μg∙mL^−1, 48 h) [%] | Inhibition percentage against C. neoformans ATCC 32264 (C. neoformans ATCC 32264; 3.9 μg∙mL^−1, 48 h) [%] | Inhibition percentage against C. neoformans ATCC 32264 (C. neoformans ATCC 32264; 7.8 μg∙mL^−1, 48 h) [%] | Inhibition percentage against C. neoformans ATCC 32264 (C. neoformans ATCC 32264; 15.6 μg∙mL^−1, 48 h) [%] | Inhibition percentage against C. neoformans ATCC 32264 (C. neoformans ATCC 32264; 31.2 μg∙mL^−1, 48 h) [%] | Inhibition percentage against C. neoformans ATCC 32264 (C. neoformans ATCC 32264; 62.5 μg∙mL^−1, 48 h) [%] | Inhibition percentage against C. neoformans ATCC 32264 (C. neoformans ATCC 32264; 125 μg∙mL^−1, 48 h) [%] | Inhibition percentage against C. neoformans ATCC 32264 (C. neoformans ATCC 32264; 250 μg∙mL^−1, 48 h) | Antifungal activity against C. albicans (in words) (C. albicans ATCC 10231; at the assayed concentrations (250–3.9 μg∙mL^−1))
COC(=O)C12CCCC(C)(C)C1CCc1cc(C(C)C)c(OC(=O)CCCc3cn(Cc4ccc(Br)cc4)nn3)c(OC(=O)CCCc3cn(Cc4ccc(Br)cc4)nn3)c12 (stereo not drawn) [Compound 14, Methyl(11,12-O-(4-(1-(4-bromobenzyl)-1H-1,2,3-triazol-4-yl)-butanoyloxy)-abieta-8,11,13-triene)-20-oate] | >250 | 250 | 1.3 ± 0.2 | 1.3 ± 0.3 | 1.9 ± 0.3 | 9.3 ± 1.5 | 13.3 ± 0.6 | 29.1 ± 2.5 | 6.3 ± 1.5 | 0.0 | 4.5 ± 0.2 | 10.1 ± 1.0 | 12.0 ± 1.2 | 16.9 ± 1.1 | 30.1 ± 1.4 | 57.2%–67.4% and 67.4 ± 1.7% | –
COC(=O)C12CCCC(C)(C)C1CCc1cc(C(C)C)c(OC(=O)CCc3cn(Cc4ccc([N+](=O)[O-])cc4)nn3)c(OC(=O)CCc3cn(Cc4ccc([N+](=O)[O-])cc4)nn3)c12 (stereo not drawn) [Compound 15, Methyl(11,12-O-(3-(1-(4-nitrobenzyl)-1H-1,2,3-triazol-4-yl)-propanoyloxy)-abieta-8,11,13-triene)-20-oate] | >250 | >250 | 0.0 | 0.0 | 2.6 ± 0.3 | 8.2 ± 0.3 | 15.2 ± 2.8 | 33.4 ± 2.7 | 3.0 ± 1.1 | 0.0 | 0.0 | 10.0 ± 0.6 | 13.0 ± 1.4 | 15.5 ± 2.0 | 22.0 ± 2.7 | 45.4 ± 3.0% | –

Now from value to molecule, other results behind:

MIC50 (minimum concentration to inhibit 50% of fungal growth), C. albicans (C. albicans ATCC 10231) [µg/mL] | MIC50 (minimum concentration to inhibit 50% of fungal growth), C. neoformans (C. neoformans ATCC 32264) [µg/mL] | Structure (SMILES) | Inhibition percentage against C. albicans ATCC 10231 (C. albicans ATCC 10231; 3.9 μg∙mL^−1, 48 h) [%] | Inhibition percentage against C. albicans ATCC 10231 (C. albicans ATCC 10231; 7.8 μg∙mL^−1, 48 h) [%] | Inhibition percentage against C. albicans ATCC 10231 (C. albicans ATCC 10231; 15.6 μg∙mL^−1, 48 h) [%] | Inhibition percentage against C. albicans ATCC 10231 (C. albicans ATCC 10231; 62.5 μg∙mL^−1, 48 h) [%] | Inhibition percentage against C. albicans ATCC 10231 (C. albicans ATCC 10231; 125 μg∙mL^−1, 48 h) [%] | Inhibition percentage against C. albicans ATCC 10231 (C. albicans ATCC 10231; 250 μg∙mL^−1, 48 h) [%] | Inhibition percentage against C. albicans ATCC 10231 (C. albicans ATCC 10231; 31. μg∙mL^−1, 48 h) [%] | Inhibition percentage against C. neoformans ATCC 32264 (C. neoformans ATCC 32264; 3.9 μg∙mL^−1, 48 h) [%] | Inhibition percentage against C. neoformans ATCC 32264 (C. neoformans ATCC 32264; 7.8 μg∙mL^−1, 48 h) [%] | Inhibition percentage against C. neoformans ATCC 32264 (C. neoformans ATCC 32264; 15.6 μg∙mL^−1, 48 h) [%] | Inhibition percentage against C. neoformans ATCC 32264 (C. neoformans ATCC 32264; 31.2 μg∙mL^−1, 48 h) [%] | Inhibition percentage against C. neoformans ATCC 32264 (C. neoformans ATCC 32264; 62.5 μg∙mL^−1, 48 h) [%] | Inhibition percentage against C. neoformans ATCC 32264 (C. neoformans ATCC 32264; 125 μg∙mL^−1, 48 h) [%] | Inhibition percentage against C. neoformans ATCC 32264 (C. neoformans ATCC 32264; 250 μg∙mL^−1, 48 h) | Antifungal activity against C. albicans (in words) (C. albicans ATCC 10231; at the assayed concentrations (250–3.9 μg∙mL^−1))
>250 | >250 | COC(=O)C12CCCC(C)(C)C1CCc1cc(C(C)C)c(OC(=O)CCCc3cn(Cc4ccc([N+](=O)[O-])cc4)nn3)c(OC(=O)CCCc3cn(Cc4ccc([N+](=O)[O-])cc4)nn3)c12 (stereo not drawn) [Compound 16, Methyl(11,12-O-(4-(1-(4-nitrobenzyl)-1H-1,2,3-triazol-4-yl)-butanoyloxy)-abieta-8,11,13-triene)-20-oate] | 0.0 | 0.8 ± 0.1 | 2.3 ± 0.1 | 7.2 ± 0.1 | 11.7 ± 0.5 | 21.1 ± 2.4 | 3.4 ± 0.5 | 0.0 | 3.5 ± 0.4 | 5.0 ± 0.4 | 7.9 ± 0.1 | 14.5 ± 0.2 | 35.5 ± 0.4 | 36.9 ± 0.8% | –
>250 | >250 | CC(C)c1cc2c(c(OC(=O)CCc3cn(CSc4ccccc4)nn3)c1OC(=O)CCc1cn(CSc3ccccc3)nn1)C13CCCC(C)(C)C1CC2OC3=O (stereo not drawn) [Compound 17, (7β)-11,12-O-(3-(((1-phenylthio)methyl)-1H-1,2,3-triazol-4-yl)-propanoyloxy)-7,20-epoxyabieta-8,11,13-trien-20-one] | 0.0 | 2.8 ± 0.6 | 4.8 ± 1.0 | 11.5 ± 0.7 | 21.2 ± 0.2 | 42.3 ± 0.7 | 6.7 ± 1.1 | 0.0 | 0.0 | 0.0 | 0.0 | 0.0 | 11.4 ± 1.2 | 41.1 ± 1.3% | weak effect
250 | >250 | CC(C)c1cc2c(c(OC(=O)CCCc3cn(CSc4ccccc4)nn3)c1OC(=O)CCCc1cn(CSc3ccccc3)nn1)C13CCCC(C)(C)C1CC2OC3=O (stereo not drawn) [Compound 18, (7β)-11,12-O-(4-(((1-phenylthio)methyl)-1H-1,2,3-triazol-4-yl)-butanoyloxy)-7,20-epoxyabieta-8,11,13-trien-20-one] | 1.0 ± 0.1 | 2.5 ± 0.2 | 2.8 ± 1.0 | 18.3 ± 0.1 | 35.4 ± 2.1 | 57.9 ± 1.0 | 11.5 ± 1.8 | 0.0 | 0.0 | 0.0 | 0.0 | 0.0 | 11.8 ± 0.6 | 44.3 ± 1.9% | –
